From patent US20090012009A1, “Composition and Method for Treating Inflammatory Disease” (priority 2007, published 2009)

What was measured:
hFR-β = biological target: T1, hFR-β (Homo sapiens, UniProt P14207); experiment: Relative binding affinity of folate-hapten conjugates, displacement of 3H-folic acid from CHO-β cells; details: 10 nM 3H-folic acid
T1 construct: expressed in transfected cells; host or cells: CHO-β cells (CHO cells expressing hFR-β)
Method: The relative binding affinities of folate-hapten conjugates to hFR-β were examined using a previously described method (Reddy et al., 2004). CHO-β cells expressing hFR-β were seeded on 48-well plates at 70% confluence and cultured at 37° C. in folate-deficient RPMI1640 medium (Invitrogen, CA, USA) supplemented with 1× penicillin/streptomycin (Gibco, Calif., USA) and 10% fetal bovine serum (FBS) (Atlanta Biologicals, GA, USA) in a 5% CO2 humidified incubator. Twenty-four hours later, cells were washed twice with PBS (pH 7.4), after which a 10 nM solution of ^3H-folic acid (GE Healthcare, NJ, USA) was added with increasing concentrations (10^−10M to 10^−5M) of either folate-FITC, folate-DNP1, folate-DNP2, folate-DNP3, or folate-TNP in cell culture medium. Cells were incubated at 37° C. for 1 h and washed 3× with 0.5 ml PBS. 0.5 ml of 1.0% sodium dodecyl sulfate (SDS) in PBS was added to each well, and after 5 min, cell lysates were collected and transferred to vials containing scintillation cocktail and counted for radioactivity. Relative binding affinity was defined as the molar ratio required for displacement of 50% of bound ^3H-folic acid from the cell surface.

arthritic rats [1] = experiment: Arthritis scores, adjuvant-induced arthritis in rats; type: in vivo, rat; details: i.p. 5×/week; scale 0-4, scored 2×/week
Method: (§1) Experimental adjuvant-induced arthritis was induced according to a previously described method (Paulos et al., 2006; van Eden et al., 1996). Briefly, adjuvant was prepared by adding finely ground heat-killed Mycobacterium butyricum(Difco Laboratories, MI, USA) in mineral oil (Sigma-Aldrich, MO, USA) at a final concentration of 1 mg/ml. The adjuvant was kept under constant stirring to ensure homogenous distribution of the mycobacterial particles. Immunized rats were anesthetized with ketamine and xylazine (100 mg/kg and 13 mg/kg, respectively) and injected in the right hind paw with 100 μl of the mycobacterial suspension. Paw inflammation was monitored daily until the first symptoms of RA appeared on the left, non-injected hind paw. […]
(§2) To compare the efficacies of the various folate-hapten conjugates in treating RA, arthritic rats were injected i.p. 5×/week with either: 1) vehicle alone (PBS), 2) 100 nmol/kg of folate-FITC, 3) 30 nmol/kg folate-DNP1, 4) 200 nmol/kg folate-DNP1, 5) 30 nmol/kg folate-DNP2, 6) 200 nmol/kg folate-DNP2, 7) 30 nmol/kg folate-DNP3, 8) 200 nmol/kg folate-DNP3, 9) 30 nmol/kg folate-TNP, or 10) 200 nmol/kg folate-TNP. Paw volumes, arthritis scores, spleen enlargement, bone degradation, and the biodistribution of FR+macrophages were then quantitated as a function of time during therapy, as described below. […]

arthritic rats [2] = details: previous dosing studies; cited from earlier work
arthritic rats [3] = experiment: Paw volumes of non-injected hind paws, adjuvant-induced arthritis in rats; type: in vivo, rat; details: i.p. 5×/week, 30 or 200 nmol/kg (folate-FITC 100 nmol/kg)
Method: as §1, §2

[4] = test system: FR-β+ activated macrophages; experiment: 99mTc-EC20 biodistribution in spleens and livers of arthritic rats; type: in vivo, rat; details: 4 h after i.p. 99mTc-EC20 (67 nmol/kg); versus PBS-treated group
Method: To compare the efficacies of the various folate-hapten conjugates in treating RA, arthritic rats were injected i.p. 5×/week with either: 1) vehicle alone (PBS), 2) 100 nmol/kg of folate-FITC, 3) 30 nmol/kg folate-DNP1, 4) 200 nmol/kg folate-DNP1, 5) 30 nmol/kg folate-DNP2, 6) 200 nmol/kg folate-DNP2, 7) 30 nmol/kg folate-DNP3, 8) 200 nmol/kg folate-DNP3, 9) 30 nmol/kg folate-TNP, or 10) 200 nmol/kg folate-TNP. Paw volumes, arthritis scores, spleen enlargement, bone degradation, and the biodistribution of FR+macrophages were then quantitated as a function of time during therapy, as described below.
Paw volumes were measured 2×/week by multiplying length, height, and width of the non-injected hind paw (Paulos et al., 2006). […] Spleen enlargement was assessed 25 days after initial treatment by euthanizing the animal and measuring the weight of the resected organs. Bone degradation of the non-injected hind paw was evaluated by x-ray radiography in one representative rat from each hapten group treated at 200 nmol/kg folate-hapten conjugate. The biodistribution of FR+ macrophages in each treatment group was also quantified using the FR-targeted radioimaging agent, ^99mTc-EC20, which was prepared as described previously (Turk et al., 2002). Briefly, each rat was injected i.p. with 500 μCi of radioactivity at a dose of 67 nmol/kg of EC20. […]

T1 sequence (P14207 17-230): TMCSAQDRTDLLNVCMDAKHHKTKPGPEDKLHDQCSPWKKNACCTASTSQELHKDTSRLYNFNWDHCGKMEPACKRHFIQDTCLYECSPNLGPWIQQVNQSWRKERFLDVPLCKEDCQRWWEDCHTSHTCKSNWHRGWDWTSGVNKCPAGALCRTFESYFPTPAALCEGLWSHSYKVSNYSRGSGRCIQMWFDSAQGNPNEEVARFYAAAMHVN

Structure (SMILES)	rank order of binding affinity of the folate-hapten conjugates (hFR-β)	relative potencies in preventing the increase in arthritis score (arthritic rats [1])	daily dose giving optimal responses (arthritic rats [2])	paw swelling (volume changes in non-injected hind paws) (arthritic rats [3])	uptake of 99mTc-EC20 in spleens and livers [4]
Nc1nc2ncc(CNc3ccc(C(=O)NC(CCC(=O)NCCNC(=S)Nc4ccc(C(=O)O)c(-c5c6ccc(=O)cc-6oc6cc(O)ccc56)c4)C(=O)O)cc3)nc2c(=O)[nH]1 (stereo not shown) [folate-FITC, reference compound]	folate-DNP3>folate-DNP2>folate-DNP 1>folate-TNP>folate-FITC	TNP=FITC>DNP1>DNP2>DNP3	100 nmol/kg		
Nc1nc2ncc(CNc3ccc(C(=O)N[C@H](CCC(=O)N[C@H](CCCCNc4c([N+](=O)[O-])cc([N+](=O)[O-])cc4[N+](=O)[O-])C(=O)O)C(=O)O)cc3)nc2c(=O)[nH]1 [folate-TNP]	folate-DNP3>folate-DNP2>folate-DNP 1>folate-TNP>folate-FITC	TNP=FITC>DNP1>DNP2>DNP3		more effective than any of the folate-DNP conjugates, but similar in potency to folate-FITC	folate-DNP1 and folate-DNP2 appeared to be superior
